Laboratory results as given in patent publication US20240263163A1, “CELL-FREE REGIONS BY LABEL-FREE MAGNETIC EXCLUSION” (McMaster University, priority 2021, published 2024).
“Also recorded” adds a separate entry of the source.

Tests used:
[1] = test system: HBEC3 KT cells; experiment: cell-free area closure of annular monolayers formed by magnetic exclusion; format: cell-based, human; conditions: for closure rate of cell-free area: 0 h to 16 h, N=3
Experimental: The cells were maintained at 37° C. and 5% CO2 in a humidified atmosphere.
The magnetic exclusion technique was applied to form annular HBEC3 KT monolayers in which HBEC3 KT cells were trypsinized at ˜80% confluency. A 96-well flat-bottom TCT plate (IBIDI) was placed on an array of coaxially arranged ring and cylinder magnets (N52 grade, Zigmyster Magnets). The stock gadolinium-based paramagnetic solution (1 M) was diluted to 25×10^−3 M using the serum-free culture medium. A 250 μL suspension of ˜50,000 cells in 25×10^−3 M paramagnetic solution was added to the wells. After a 3 h incubation period (37° C. and 5% CO2 in a humidified atmosphere), the well plate was removed from the magnet array. The paramagnetic solution was removed, and the wells were washed twice with 200 μL culture medium. […] Tissue culture wells were plasma treated to enhance the attachment of the ECM proteins to the well surfaces. A 300 μL solution of collagen I (500 μg mL^−1) and fibronectin (12 μg mL^−1) was added to the wells. The well plate was incubated at 4° C. overnight, and subsequently, the coated wells were rinsed with phosphate-buffered saline (PBS). Annular HBEC3 KT monolayers were assembled magnetically on the coated surfaces. A fluorescent dye solution of 2 μM Calcein AM and Hoechst 33342 (2 drops per mL) was used to stain the monolayers. Brightfield and fluorescent images were taken using a 10× objective of an EVOS M7000 inverted microscope (ThermoFisher). Excitation/emission wavelengths of 470/525 nm and 357/447 nm were used for Calcein AM and Hoechst 33342, respectively.
The experimental study also involved assessing annular HBEC3 KT monolayer formation by gravitational settling. Annular inserts were 3D printed with a Formlabs Form 2 printer using a clear resin (RS-F2-GPCL-04). The inserts were attached to the well surfaces of a 12-well plate using patterned double-sided silicone adhesive tapes. The well plates containing the inserts were sterilized with UV radiation. A 100 μL suspension of ˜50,000 HBEC3 KT cells in culture medium was added to the inserts. After a 3 h incubation period, the inserts were removed, and the wells were washed twice with 500 μL culture medium.
Cell counting and geometric measurements were automatically determined in the experimental study from fluorescent images with ImageJ Fiji. The watershed segmentation algorithm (Process—Binary—Watershed) was used to distinguish cells in high cell density regions. The brightfield image contrast was adjusted using the Enhance Local Contrast (CLAHE) ImageJ plugin to measure the cell-free area. The Sobel edge detection algorithm (Process—Find edges) was used to highlight the boundaries of the monolayers. Next, image smoothing was performed using the Gaussian Blur filter (Process—Filter—Gaussian Blur). The cell-free areas were measured automatically after setting the image threshold. The equivalent diameters were calculated from the cell-free areas. The monolayer annulus width was determined by taking the average of the annulus widths measured at four orthogonal positions. The straight-line tool of ImageJ was used for the measurements.
The cell-free area closure of the annular monolayers was also studied in the experiments. […] The annular monolayers were produced on TCT and collagen I-fibronectin coated well surfaces to investigate the influence of the underlying substrate on the closure rate.
The initial boundary of the cell-free region is marked by a white dotted line (e.g., see FIG. 6A).
The closure rates are calculated by measuring the differences between the mean initial and final cell-free areas at 0 h and 16 h.

[2] = test system: HBEC3 KT cells; experiment: reaction-diffusion (FKPP/Porous-Fisher) numerical model and logistic growth fit of cell-free area closure; set-up: species or system human; conditions: for growth rate λ: from logistic growth equation, U at 16 h and U0; for D0 / D1 / m: Replicate 1
Experimental: Numerical model: The Fisher—Kolmogorov—Petrovsky—Piskunov (FKPP) reaction-diffusion equation is routinely used to model the closure of rectangular cell-free areas in scratch-based assays^27,47,48. The FKPP equation consists of a diffusion term that describes cell migration and a source term representing cell proliferation. The one-dimensional axisymmetric form of the FKPP equation is given by equation (6):^49
where U denotes the cell density (cells mm^−2) and D the cell diffusivity (mm^2 h^−1). The source term consists of a logistic growth function G=λ(1−U/K) with growth rate λ(h^−1) and carrying capacity K (cells mm^−2)^47. The carrying capacity is the maximum density for a cell monolayer when contact inhibition reduces the net cell proliferation to zero^47. The classical FKPP model assumes a constant cell diffusivity D=D0, where D0 is the diffusivity for isolated cells^27,47. In contrast, the Porous-Fisher model, which is an extension of the FKPP model, uses a diffusivity function D=D0(U/K)^m that increases with cell density (m>0), where D0 denotes the maximum diffusivity^47,50.
Besides cell migration, cell proliferation leads to the closure of cell-free areas. To determine […], a logistic growth equation^51 was used as shown in equations 7 and 8:
where U0 denotes the initial cell density. The maximum cell density determined by counting cells in the confluent regions of annular HBEC 3KT monolayers gives K=1690 cells mm^−2, which is consistent with the previously reported values^28,52. Experimentally derived values of U at 16 h and U0 were used to calculate λ from Equation 8.
Brightfield images of the annular monolayers were taken every 2 h over 16 h to track the closures of the cell-free areas on TCT surfaces. Consistent with the monolayer geometry, circular tracks of ˜0.14 mm width were superimposed on the brightfield images to manually count the cells within the domain 0≤r≤Rmax. The total number of cells counted in each track was divided by the respective annulus area to generate experimental cell density datasets. In the cell density plots, each track was represented by the radial distance of its midpoint from the center of the annular monolayer.
The finite volume method (FVM) with a time marching scheme was used to discretize and predict cell density (Up) values from Equation 6. A linear combination of the classical FKPP and Porous-Fisher diffusivity functions were used, i.e., D=D0+D1(U/K)^m, to model the spatiotemporal change in cell density on the TCT surfaces. The combined diffusivity function was previously used to fit cell density profiles of scratch assays with rectangular cell-free areas^50. A zero net flux boundary condition was imposed at both r=0 and r=Rmax^28,50.
As the cell density decreases at the boundary Rmax, the zero net flux condition applied at this boundary is an approximation. A Genetic Algorithm (GA)-based error minimization approach was implemented to minimize the root mean squared error (RMSE) between Up and the experimental (Uexp) cell density values^53 as shown in equation 9.
The cell density was measured at 15 locations within 0≤r≤Rmax and the index i denotes the location number. The index j indicates timepoints, where j=1, 2, 3 and 4 corresponds to t=4, 8, 12 and 16 h. […] The limits for D0 are 0≤D0≤0.004 mm^2 h^−1, where D0=0.004 mm^2 h^−1 is the maximum isolated-cell diffusivity value reported in the literature^28,50.
The experimentally obtained cell-free area closure rates were approximately two orders higher than the maximum value of D0(Section 2.3). […] The exponent m determines whether the diffusivity D changes linearly or non-linearly with a change in cell density. However, the biological meaning of m is not yet fully understood^47. Here, the limits 0≤m≤4 are considered, where m=4 is the highest value reported in the literature^28,50. The experimentally derived values of λ are used in the model. […]

[3] = test system: HBEC3 KT cells; experiment: live/dead assay (NucBlue Live / NucGreen Dead); format: cell-based
Experimental: The experimental study also involved performing live/dead assays. A 400 μL suspension of ˜5000 HBEC3 KT cells in 25×10^−3 M paramagnetic solution was added to the wells of a 48-well TCT plate. After a 3 h incubation period, the paramagnetic solution was replaced with the culture medium. As controls, an equal number of cells were seeded into wells containing only the culture medium. The cell viability was assessed using the NucBlue Live and NucGreen Dead nuclear acid stains (ReadyProbes, ThermoFisher). Fluorescent images were taken at 24, 48, 96, and 144 h. Excitation/emission wavelengths of 357/447 nm and 470/525 nm were used for NucBlue and NucGreen, respectively. The quantification of live and dead cells was performed using ImageJ Fiji.
In the experimental study, all statistical tests were performed using the GraphPad Prism software (version 9.0.0). Two-way ANOVA with Bonferroni post hoc tests were performed to assess the effect of residual Gd^3+ on cell viability and metabolism over time. […] A p-value<0.05 was considered statistically significant. […]
(§1) The effect of the residual Gd^3+ on cell viability was assessed at 24, 48, 96, and 144 h using a live/dead assay. […] Cell metabolism, which is an indicator of viability, was also measured using a resazurin-based assay (Presto Blue HS). The increase in the fluorescence intensity values over time indicates cell proliferation.

[4] = test system: HBEC3 KT cells; experiment: transcriptome analysis (Clariom S microarray); format: cell-based, human; conditions: 25×10^−3 M paramagnetic solution 3 h, RNA after 24 h, 21,448 genes, fold-change cutoff 2, FDR p<0.05, N=4
Experimental: The experimental study also involved performing transcriptome analysis. A 1.5 mL suspension of ˜500,000 HBEC3 KT cells in 25×10^−3 M paramagnetic solution was added to the wells of a 12-well TCT plate. Following a 3 h incubation period, the paramagnetic solution was replaced with the culture medium. After 24 h, total RNA was isolated and purified using RNeasy Mini Kit (Qiagen) as per the manufacturer's protocol. The RNA concentration and purity were measured using a spectrophotometer (NanoDrop, ThermoFisher). Transcriptome analysis was performed using Clariom S microarray gene chips (ThermoFisher).
In the experimental study, all statistical tests were performed using the GraphPad Prism software (version 9.0.0). Two-way ANOVA with Bonferroni post hoc tests were performed to assess the effect of residual Gd^3+ on cell viability and metabolism over time. […] A p-value<0.05 was considered statistically significant. The statistical evaluation of the microarray datasets was performed using the transcriptome analysis console (TAC) software (ThermoFisher). The raw gene expression data were normalized using the signal space transformation-robust multiarray analysis (SST-RMA) algorithm^57. A fold-change cutoff value of 2 was used to identify the differentially expressed genes^42. […]

[5] = test system: cells; conditions: concentration of 25 mM; cited from earlier work
[6] = test system: HBEC3 KT cells; experiment: resazurin-based metabolism assay (Presto Blue HS); format: cell-based; conditions: 25×10^−3 M paramagnetic solution 3 h, then 24, 48, 96 and 144 h
Experimental: The experimental study also involved performing a metabolism assay. A 250 μL suspension of ˜4000 HBEC3 KT cells in 25×10^−3 M paramagnetic solution was added to the wells of a 96-well plate. Following a 3 h incubation period, the paramagnetic solution was replaced with the culture medium. An equal number of cells suspended in the culture medium were added to the wells as controls. A resazurin-based assay (Presto Blue HS, ThermoFisher) was used to analyze cell metabolism at 24, 48, 96, and 144 h. The fluorescence intensity was measured at multiple spots within each well using excitation/emission wavelengths of 560/590 nm (SpectraMax i3, Molecular Devices). Blank wells containing only culture medium were used to account for background fluorescence. The average fluorescence intensity of the blanks was subtracted from the average fluorescence value obtained from each well of the Gadolinium and control groups.
In the experimental study, all statistical tests were performed using the GraphPad Prism software (version 9.0.0). […]
as §1

[7] = EGF 0.16 ng mL^−1, TCT surfaces
[8] = EGF 0.80 ng mL^−1, TCT surfaces

Q: Which results are given for epidermal growth factor [EGF]?
A: closure rate of cell-free area ([1]; TCT surfaces, 0.16 ng mL^−1 EGF): ~0.56±0.05 mm^2 h^−1; closure rate of cell-free area ([1]; TCT surfaces, 0.8 ng mL^−1 EGF): ~0.58±0.01 mm^2 h^−1; closure rate of cell-free area ([1]; collagen I-fibronectin surfaces, 0.16 ng mL^−1 EGF): ~0.61±0.01 mm^2 h^−1; closure rate of cell-free area ([1]; collagen I-fibronectin surfaces, 0.8 ng mL^−1 EGF): ~0.62±0.02 mm^2 h^−1; change in cell-free areas ([1]; collagen I-fibronectin surfaces, 0.8 ng mL^−1 EGF, at 4 h, in contrast to TCT surfaces): significant decrease; closure of cell-free regions ([1]; collagen I-fibronectin surfaces, 0.8 ng mL^−1 EGF, at 16 h): near-complete closure; growth rate λ ([2]; 0.16 ng mL^−1 EGF): ~0.03 h⁻¹; growth rate λ ([2]; 0.8 ng mL^−1 EGF): ~0.03 h⁻¹; λ ([2]; EGF 0.16 ng mL^−1): 2.91 h^−1 (×10^−2); D0 [2, 7]: 3.06 mm^2 h^−1 (×10^−3); D1 [2, 7]: 3.02 mm^2 h^−1; m [2, 7]: 1.97; φ (dimensionless number, higher indicates faster closure) ([2]; EGF 0.16 ng mL^−1, tmax=24 h): 3.23; λ ([2]; EGF 0.80 ng mL^−1): 2.91 h^−1 (×10^−2); D0 [2, 8]: 3.91 mm^2 h^−1 (×10^−3); D1 [2, 8]: 3.75 mm^2 h^−1; m [2, 8]: 2.62; φ (dimensionless number, higher indicates faster closure) ([2]; EGF 0.80 ng mL^−1, tmax=24 h): 3.60

Q: Which results are given for [Gd+3] [Gd^3+]?
A: effect on cell viability (viable cell counts) ([3]; 25×10^−3 M paramagnetic solution 3 h, then 24, 48, 96 and 144 h, vs control): insignificant; toxicity to the cells ([3]; live/dead and metabolism assays, residual Gd^3+): not toxic; effect on closure of magnetically assembled monolayers ([1]; vs gravity-assisted monolayers, no EGF, 0 and 16 h, TCT surfaces): insignificant; differential gene expression / impact on transcriptional profiles [4]: no statistically significant differentially expressed genes; also recorded: statistically insignificant; effect on cell viability [5]: does not affect cell viability; cell metabolism (fluorescence intensity) vs control [6]: No significant difference
